Test results as given in ChEMBL document CHEMBL1147305, “Inhibition of protein-tyrosine kinase activity by flavanoids and related compounds” (J Nat Prod, 1989).
Converted amounts (≈) assume the structure as drawn. The source made the active and inactive calls. The rule behind the calls is not given here.

Organism: Bos taurus
Experiment: Inhibition of bovine thymocytes protein tyrosine kinase assessed as angiotensin 1 phosphorylation

Going from O=c1cc(-c2ccc(O)cc2)oc2cc(O)cc(O)c12 to COc1ccc(-c2cc(=O)c3c(O)cc(O)cc3o2)cc1, the ID50 rises from 90 mg/L (≈ 333 µM) to 300 mg/L (≈ 1060 µM) (3.3-fold).

O=c1c(-c2ccc(O)cc2)coc2cc(O)cc(O)c12 and COc1ccc(-c2coc3cc(O)cc(O)c3c2=O)cc1 cannot be ordered by ID50: over 500 mg/L for the first, over 500 mg/L for the second.

COc1ccc(-c2oc3cc(OC)cc(O)c3c(=O)c2OC)cc1 and COc1ccc(-c2oc3cc(O)cc(O)c3c(=O)c2OC)cc1 cannot be ordered by ID50: over 500 mg/L for the first, over 500 mg/L for the second.

Compared with O=C1C[C@@H](c2ccc(O)cc2)Oc2cc(O)cc(O)c21, O=C1C[C@@H](c2ccccc2)Oc2cc(O)cc(O)c21 is higher in ID50: 80 mg/L (≈ 294 µM) for the first, over 500 mg/L for the second.

Compared with COc1ccc(-c2cc(=O)c3c(O)cc(OC)cc3o2)cc1, COc1ccc(-c2cc(=O)c3c(O)c(OC)c(O)c(OC)c3o2)cc1 is lower in ID50: over 500 mg/L for the first, 48 mg/L (≈ 139 µM) for the second.

O=C1CC(c2ccccc2)Oc2cc(O)ccc21 (stereo not drawn) and O=C1c2ccc(O)cc2O[C@H](c2ccc(O)c(O)c2)[C@H]1O cannot be ordered by ID50: over 500 mg/L for the first, over 500 mg/L for the second.

Going from O=c1c(O)c(-c2ccc(O)c(O)c2)oc2cc(O)ccc12 to O=c1c(O)c(-c2cc(O)c(O)c(O)c2)oc2cc(O)ccc12, the ID50 falls from 35 mg/L (≈ 122 µM) to 7 mg/L (≈ 23.2 µM) (5-fold).

First: C[C@H]1O[C@@H](Oc2c(-c3cc(O)c(O)c(O)c3)oc3cc(O)cc(O)c3c2=O)[C@@H](O)[C@@H](O)[C@@H]1O
Second: O=c1c(O)c(-c2cc(O)c(O)c(O)c2)oc2cc(O)cc(O)c12
The ID50 of the first is higher: over 500 mg/L for the first, 11 mg/L (≈ 34.6 µM) for the second.

Compared with COc1cc(C(=O)O)cc(OC)c1O, COc1cc(/C=C/C(=O)O)ccc1O is lower in ID50: over 500 mg/L for the first, 350 mg/L (≈ 1800 µM) for the second.

Compared with O=C1c2c(O)cc(O)cc2O[C@H](c2ccc(O)c(O)c2)[C@H]1O, O=c1c(O)c(-c2ccc(O)c(O)c2)oc2cc(O)cc(O)c12 is 25-fold lower in ID50: 270 mg/L (≈ 887 µM) for the first, 11 mg/L (≈ 36.4 µM) for the second.

Going from O=C(O)/C=C/c1ccc(O)cc1 to O=c1c(-c2ccc(O)cc2)coc2cc(O)c(O)cc12, the ID50 rises from 450 mg/L (≈ 2740 µM) to over 500 mg/L.

For O=c1cc(-c2ccccc2)oc2ccc3ccccc3c12, the Activity was “inactive”.
